Test results published in ChEMBL document CHEMBL1201862, “PubChem BioAssay data set” (2004).
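Cultured in 96-well plates, cells were exposed to test compound for 48 hours across five concentrations. At the GI50, growth is halved.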 The source made the active and inactive calls. Cut-off read from the data, not from the text of the source: active = GI50 up to about 1.1 µM and inactive = higher.

Legend:
Assay in all cases: inhibition of tumour cell growth, NCI panel, 48 h
KM-20L2 = tested on: KM-20L2
K562 = tested on: K562
OVCAR-8 = tested on: OVCAR-8
RXF 631 = tested on: RXF 631
SW-620 = tested on: SW-620
DLD-1 = tested on: DLD-1
Malme-3M = tested on: Malme-3M
UO-31 = tested on: UO-31
NCI-H460 = tested on: NCI-H460
SNB-75 = tested on: SNB-75
HT-29 = tested on: HT-29
HCC 2998 = tested on: HCC 2998
HCT-116 = tested on: HCT-116
UACC-62 = tested on: UACC-62
CCRF-CEM = tested on: CCRF-CEM
KM12 = tested on: KM12
M14 = tested on: M14
ACHN = tested on: ACHN
OVCAR-3 = tested on: OVCAR-3
A498 = tested on: A498
NCI-H23 = tested on: NCI-H23
HOP-62 = tested on: HOP-62
SF-268 = tested on: SF-268
RXF 393 = tested on: RXF 393
SF-539 = tested on: SF-539
SNB-78 = tested on: SNB-78
EKVX = tested on: EKVX
HOP-18 = tested on: HOP-18
CAKI-1 = tested on: CAKI-1
M19-MEL = tested on: M19-MEL
MOLT-4 = tested on: MOLT-4
TK-10 = tested on: TK-10
HL-60 = tested on: HL-60
NCI-H522 = tested on: NCI-H522
IGROV-1 = tested on: IGROV-1
SF-295 = tested on: SF-295
DMS-114 = tested on: DMS-114
SN12C = tested on: SN12C
COLO 205 = tested on: COLO 205
LXFL 529 = tested on: LXFL 529
SNB-19 = tested on: SNB-19
SK-MEL-2 = tested on: SK-MEL-2
OVCAR-4 = tested on: OVCAR-4
SK-MEL-5 = tested on: SK-MEL-5
SK-MEL-28 = tested on: SK-MEL-28
HCT-15 = tested on: HCT-15
UACC-257 = tested on: UACC-257
786-0 = tested on: 786-0
A549 = tested on: A549
U-251 = tested on: U-251
OVCAR-5 = tested on: OVCAR-5
HOP-92 = tested on: HOP-92
DU-145 = tested on: DU-145
NCI/ADR-RES = tested on: NCI/ADR-RES
MCF7 = tested on: MCF7
T47D = tested on: T47D
MDA-MB-435 = tested on: MDA-MB-435

Q: How did the GI50 (KM-20L2) turn out when `Cn1c(=O)c2/c(n(C)c1=O)=N\C=c1\c(=O)n(C)c(=O)n(C)\c1=N\C=2` was run?
A: Its GI50 is > 100 µM (inactive).

Q: What about the GI50 (K562) of the same compound?
A: The GI50 was > 100 µM (inactive).

Q: What about the GI50 (OVCAR-8) of the same compound?
A: The GI50 was > 100 µM (inactive).

Q: What about the GI50 (RXF 631) of the same compound?
A: Its GI50 is > 100 µM (inactive).

Q: And the GI50 (SW-620)?
A: The GI50 was > 100 µM (inactive).

Q: And the GI50 (DLD-1)?
A: Its GI50 is > 100 µM (inactive).

Q: And the GI50 (Malme-3M)?
A: Its GI50 is > 100 µM (inactive).

Q: And the GI50 (UO-31)?
A: The GI50 was > 100 µM (inactive).

Q: What about the GI50 (NCI-H460) of the same compound?
A: Its GI50 is > 100 µM (inactive).

Q: And the GI50 (SNB-75)?
A: Its GI50 is 39.4 µM (inactive).

Q: And the GI50 (HT-29)?
A: The GI50 was > 100 µM (inactive).

Q: And the GI50 (HCC 2998)?
A: Its GI50 is > 100 µM (inactive).

Q: And the GI50 (HCT-116)?
A: Its GI50 is > 100 µM (inactive).

Q: And the GI50 (UACC-62)?
A: The GI50 was > 100 µM (inactive).

Q: And the GI50 (CCRF-CEM)?
A: Its GI50 is > 100 µM (inactive).

Q: And the GI50 (KM12)?
A: Its GI50 is > 100 µM (inactive).

Q: What about the GI50 (M14) of the same compound?
A: Its GI50 is > 100 µM (inactive).

Q: And the GI50 (ACHN)?
A: Its GI50 is > 100 µM (inactive).

Q: What about the GI50 (OVCAR-3) of the same compound?
A: Its GI50 is > 100 µM (inactive).

Q: What about the GI50 (A498) of the same compound?
A: The GI50 was > 100 µM (inactive).

Q: And the GI50 (NCI-H23)?
A: Its GI50 is > 100 µM (inactive).

Q: And the GI50 (HOP-62)?
A: The GI50 was > 100 µM (inactive).

Q: And the GI50 (SF-268)?
A: The GI50 was > 100 µM (inactive).

Q: And the GI50 (RXF 393)?
A: The GI50 was > 100 µM (inactive).

Q: What about the GI50 (SF-539) of the same compound?
A: Its GI50 is > 100 µM (inactive).

Q: What about the GI50 (SNB-78) of the same compound?
A: The GI50 was 76.2 µM (inactive).

Q: And the GI50 (EKVX)?
A: The GI50 was > 100 µM (inactive).

Q: What about the GI50 (HOP-18) of the same compound?
A: Its GI50 is > 100 µM (inactive).

Q: What about the GI50 (CAKI-1) of the same compound?
A: Its GI50 is > 100 µM (inactive).

Q: And the GI50 (M19-MEL)?
A: The GI50 was > 100 µM (inactive).

Q: What about the GI50 (MOLT-4) of the same compound?
A: Its GI50 is > 100 µM (inactive).

Q: What about the GI50 (TK-10) of the same compound?
A: Its GI50 is > 100 µM (inactive).

Q: And the GI50 (HL-60)?
A: Its GI50 is > 100 µM (inactive).

Q: What about the GI50 (NCI-H522) of the same compound?
A: The GI50 was > 100 µM (inactive).

Q: What about the GI50 (IGROV-1) of the same compound?
A: The GI50 was > 100 µM (inactive).

Q: What about the GI50 (SF-295) of the same compound?
A: Its GI50 is > 100 µM (inactive).

Q: What about the GI50 (DMS-114) of the same compound?
A: The GI50 was > 100 µM (inactive).

Q: And the GI50 (SN12C)?
A: Its GI50 is > 100 µM (inactive).

Q: What about the GI50 (COLO 205) of the same compound?
A: The GI50 was > 100 µM (inactive).

Q: And the GI50 (LXFL 529)?
A: The GI50 was > 100 µM (inactive).

Q: What about the GI50 (SNB-19) of the same compound?
A: Its GI50 is > 100 µM (inactive).

Q: And the GI50 (SK-MEL-2)?
A: Its GI50 is > 100 µM (inactive).

Q: And the GI50 (OVCAR-4)?
A: The GI50 was > 100 µM (inactive).

Q: And the GI50 (SK-MEL-5)?
A: Its GI50 is > 100 µM (inactive).

Q: And the GI50 (SK-MEL-28)?
A: The GI50 was > 100 µM (inactive).

Q: What about the GI50 (HCT-15) of the same compound?
A: The GI50 was greater than 100 µM.

Q: What about the GI50 (UACC-257) of the same compound?
A: Its GI50 is > 100 µM (inactive).

Q: What about the GI50 (786-0) of the same compound?
A: Its GI50 is > 100 µM (inactive).

Q: What about the GI50 (A549) of the same compound?
A: The GI50 was > 100 µM (inactive).

Q: And the GI50 (U-251)?
A: Its GI50 is > 100 µM (inactive).

Q: What about the GI50 (OVCAR-5) of the same compound?
A: The GI50 was > 100 µM (inactive).

Q: And the GI50 (HOP-92)?
A: The GI50 was > 100 µM (inactive).

Q: Which results are given for `COc1cc2c(c(OC)c1OC)-c1ccc(OC)c(=O)cc1[C@@H](NC(C)=O)CC2` [COLCHICINE]?
A: GI50 (KM-20L2): < 0.0625 µM (active); GI50 (DU-145): 0.659 µM (active); GI50 (K562): 0.0135 µM (active); GI50 (RXF 631): 0.0363 µM (active); GI50 (DLD-1): 0.0625 µM (active); GI50 (UO-31): 0.56 µM (active); GI50 (NCI/ADR-RES): 0.845 µM (active); GI50 (HCT-116): 0.0168 µM (active); GI50 (MCF7): 0.0625 µM (active); GI50 (EKVX): 49 µM (inactive); GI50 (HOP-18): > 68.9 µM (inactive); GI50 (MOLT-4): 0.0237 µM (active); GI50 (TK-10): 23.7 µM (inactive); GI50 (T47D): > 78.3 µM (inactive); GI50 (HL-60): < 0.0625 µM (active); GI50 (NCI-H522): 0.0119 µM (active); GI50 (OVCAR-4): 12.9 µM (inactive); GI50 (MDA-MB-435): < 0.01 µM (active); GI50 (OVCAR-5): 7.18 µM (inactive)
